Measured values from US10040836B2, “Peptides for the treatment of neurodegenerative diseases” (Ramot at Tel-Aviv University Ltd., priority 2012, dated 2018).
Where a SMILES comes first, the peptide text is derived from it. Where no end group is shown, it is not given here. The star is where a group is joined. Cbz = O=C(OCc1ccccc1)*; CH2F = FC*

Columns and labels:
caspase-6 = molecular target: T1, caspase-6 (Homo sapiens, UniProt P55212); test: Purified caspase-6 activity assay (Caspase-Glo 6, Z-VEID-aminoluciferin); format: biochemical
T1 construct: purchased Enzo life-science
T1 sequence (P55212 24-293): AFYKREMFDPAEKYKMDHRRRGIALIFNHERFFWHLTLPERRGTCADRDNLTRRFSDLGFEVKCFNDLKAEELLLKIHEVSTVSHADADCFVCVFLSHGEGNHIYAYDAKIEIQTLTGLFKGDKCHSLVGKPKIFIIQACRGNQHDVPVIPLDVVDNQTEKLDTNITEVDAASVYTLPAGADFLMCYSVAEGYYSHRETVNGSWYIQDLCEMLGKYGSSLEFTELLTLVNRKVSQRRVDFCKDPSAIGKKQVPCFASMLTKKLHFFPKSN
Protocol: For determining ED11 caspase-6 inhibition ability, the Caspase-Glo® 6 assay (Promega) was carried out according to the manufacturer's instructions. Briefly, 0.1 U/ml Purified caspase-6 (Enzo life-science) was incubated with 0-12 μM Z-VEID-aminoluciferin in the presence of 10 μM ED11 or DMSO as vehicle control, and luminescent signal of released aminoluciferin (as RLU) was detected using Synergy HT multi-mode micro-plate reader (Bio-Tek). For Michaelis-Menten curve plotting, initial velocity was calculated using linear regression of the progress curve linear segment, adjusted to RLU/min. For caspase-3 inhibition capability, caspase-3 inhibitor drug detection kit (Abcam) was performed according to the manufacturer's instructions.
EDII inhibits caspase-6 activity in a purified caspase-6 activity assay: To test the peptide ability to compete on caspase-6 activity, purified caspase-6 and Z-VEID-Aminoluciferin (Caspase-6 Glo™, Promega) were incubated with ED11, and bioluminescence signal was detected using SynergyHT microplate reader (FIGS. 1A-1D).

caspase-3 = molecular target: T2, caspase-3 (Homo sapiens, UniProt P42574); test: Fluorescent caspase-3 inhibition assay (caspase-3 inhibitor drug detection kit); format: biochemical; conditions: purified caspase-3/caspase-6 assay, FIGS. 1E-1F
T2 construct: purchased Abcam
T2 sequence (P42574 29-277): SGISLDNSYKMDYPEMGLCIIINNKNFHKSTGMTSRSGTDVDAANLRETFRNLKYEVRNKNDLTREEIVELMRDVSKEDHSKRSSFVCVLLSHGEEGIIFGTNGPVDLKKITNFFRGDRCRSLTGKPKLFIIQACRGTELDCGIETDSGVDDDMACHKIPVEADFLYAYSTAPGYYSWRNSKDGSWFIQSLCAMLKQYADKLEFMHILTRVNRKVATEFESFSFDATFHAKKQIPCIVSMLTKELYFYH

SH-SY5Y cells = test: Cell viability, proliferation and cell cycle in a basal state; format: cell-based, Human; conditions: up to 50 μM
Protocol: SH-SY5Y cells were pre-incubated with 25 μM ED11 for one hour. Then, 10 μM 5-bromo-2-deoxyuridine (BrdU) was added for 2 hours. Medium was discarded and cells were fixed with 70% ethanol. DNA denaturation was conducted with 1.5 M HCl exposure for 30 minutes. FITC conjugated anti-BrdU antibody was used to mark incorporated BrdU. DNA staining was performed by using propidium iodide (PI). 15,000 cells per sample were read using FACS-Calibur flow cytometer, and cell-cycle analysis was conducted after doublet discrimination.
To induce exogenous glutamate toxicity, SH-SY5Y cell were incubated with the indicated concentrations of L-Glutamate (Sigma) for 16 hours, in the presence of 20 μM ED11 or vehicle control. For the In-cell caspase-6 activity assay, green FLICA caspase-6 assay (ImmunoChemistry Technologies) was conducted according to the manufacturer's instructions. Briefly, cells were lifted by trypsin and adjusted to 1.5×10^6 cells/ml. Cells were incubated with FAM-VEID-FMK for 1 hour in 37° C., washed with PBS and 5,000 cells per sample were analyzed by flow-cytometry. For apoptosis detection, Annexin V-FITC apoptosis detection assay (Abcam) was conducted according to the manufacturer's instructions. Briefly, 2×10^5 cells were incubated with Annexin V-FITC and PI for 5 minutes in R.T, and 15,000 cells per sample were analyzed by flow-cytometry. For viability assessment, medium was depleted and washed twice with PBS, and alamar-blue dye (AbD serotec, 1/10 in culture medium) was added to the cells, as instructed by the manufacturer. Fluorescence was monitored at 530-560 nm excitation wavelength and 590 nm emission wavelength, and viability was calculated as percentage of untreated control.

Compound: COC(=O)C[C@H](NC(=O)[C@H](C)NC(=O)[C@@H](NC(=O)OCc1ccccc1)C(C)C)C(=O)CF [Z-VAD-FMK, reference compound] (Cbz-Val-Ala-Asp(OMe)-CH2F)
- caspase-6 activity, specificity experiment (caspase-6; purified caspase-3/caspase-6 assay, FIGS. 1E-1F): inhibits activity of caspase-3 and caspase-6
- caspase-3 activity, specificity experiment (caspase-3): inhibits activity of caspase-3 and caspase-6

Compound: GRKKRRQRRRPPQSSEIVLDGTDN [ED11]
- cell proliferation (BrdU) (SH-SY5Y cells): no effect
- cell viability (ALAMAR blue) (SH-SY5Y cells; 48 hours incubation): no effect
- cell cycle state (SH-SY5Y cells; O.N. incubation): no effect

Compound: modified peptide: ED11 with three of the amino acids in positions 17, 20 and 23 changed to Histidine (H) (GRKKRRQRRRPPQSSEHVLHGTHN)
- caspase-6 activity (caspase-6; purified caspase-6, Z-VEID-aminoluciferin, 10 μM ED11): ineffective and didn't inhibit the caspase 6 activity
